Drawing on ChEMBL document CHEMBL1151401, “Plant anticancer agents. XII. Isolation and structure elucidation of new cytotoxic quinones from Tabebuia cassinoides” (1982), this text covers EC50 and Activity for four molecules.

Values after ≈ are worked out from the molar mass of the structure shown. Active and inactive are the calls of the source. The calls are words filed in the database; no cut-off is given here.

One assay concerns KB. Description: Cytotoxicity against human KB cells. It counts as functional. Particulars: read-out: ED50 (the source's name).
A further assay concerns P388. Description: In vivo cytotoxicity against mouse P388 cells at upto 35 mg/kg. Format: functional, organism-based. Further details: dose 35 mg/kg.

Regarding `CC(C)=CCC1=C(O)C(=O)c2ccccc2C1=O` [LAPACHOL], in the assay on KB, the EC50 was determined as 4.4 µg/mL (≈ 18.2 µM). As to `CC(O)c1cc2c(o1)C(=O)c1ccccc1C2=O` (stereo not given), the EC50 in the assay on KB is 2 µg/mL (≈ 8.26 µM). On to `CC(O)c1cc2c(o1)C(=O)c1c(O)cccc1C2=O` (stereo not given), for which the EC50 with KB turned out to be 1 µg/mL (≈ 3.87 µM). As for `CC(=O)c1cc2c(o1)C(=O)c1ccccc1C2=O` [NAPABUCASIN], in the assay on P388, the outcome was inactive. The EC50 in the assay on KB was determined as 1 µg/mL (≈ 4.16 µM).
